Data reported in ChEMBL document CHEMBL1201862, “PubChem BioAssay data set” (2004).
Calls of active or inactive are those of the source.

Legend:
Type in all cases: functional
[1] = target: Tyrosine-protein kinase JAK2 (Homo sapiens, UniProt O60674);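 further: JAK2 tested as one member of a kinase panel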
[2] = target: ALK tyrosine kinase receptor (Homo sapiens, UniProt Q9UM73);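 further: ALK tested as one member of a kinase panel screen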
[3] = target: Proto-oncogene tyrosine-protein kinase receptor Ret (Homo sapiens, UniProt P07949);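 further: measured within a kinome-wide profiling panel, RET as the panel member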
[4] = target: T1, Serine/threonine-protein kinase D3 (Homo sapiens, UniProt O94806);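 further: determined within a kinase panel screen, with PRKCN as the panel member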
T1 sequence (O94806 whole entry): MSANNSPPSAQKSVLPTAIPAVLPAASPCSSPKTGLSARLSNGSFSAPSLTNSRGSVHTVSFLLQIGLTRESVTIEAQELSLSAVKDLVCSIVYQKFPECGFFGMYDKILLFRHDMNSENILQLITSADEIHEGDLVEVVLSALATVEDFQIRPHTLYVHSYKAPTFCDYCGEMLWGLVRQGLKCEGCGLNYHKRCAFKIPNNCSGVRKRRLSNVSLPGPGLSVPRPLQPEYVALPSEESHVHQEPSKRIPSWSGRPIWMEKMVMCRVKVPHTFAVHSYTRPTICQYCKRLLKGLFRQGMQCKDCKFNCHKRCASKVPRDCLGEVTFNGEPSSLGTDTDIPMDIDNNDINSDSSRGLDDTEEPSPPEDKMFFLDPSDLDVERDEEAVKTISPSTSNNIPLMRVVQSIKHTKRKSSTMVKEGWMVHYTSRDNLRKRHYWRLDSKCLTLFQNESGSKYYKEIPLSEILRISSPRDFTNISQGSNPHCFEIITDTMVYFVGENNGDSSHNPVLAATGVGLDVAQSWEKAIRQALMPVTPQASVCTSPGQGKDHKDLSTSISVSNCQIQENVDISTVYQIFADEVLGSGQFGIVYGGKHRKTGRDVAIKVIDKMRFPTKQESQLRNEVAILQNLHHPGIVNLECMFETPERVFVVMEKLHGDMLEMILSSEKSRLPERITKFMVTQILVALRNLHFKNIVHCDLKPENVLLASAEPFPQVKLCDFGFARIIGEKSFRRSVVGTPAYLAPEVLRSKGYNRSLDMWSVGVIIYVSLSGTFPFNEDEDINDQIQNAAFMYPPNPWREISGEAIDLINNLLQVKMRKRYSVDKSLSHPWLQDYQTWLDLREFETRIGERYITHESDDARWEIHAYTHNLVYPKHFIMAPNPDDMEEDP

[5] = target: Serine/threonine-protein kinase pim-1 (Homo sapiens, UniProt P11309)
[6] = target: Serine/threonine-protein kinase PAK 4 (Homo sapiens, UniProt O96013);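 further: value obtained within a kinome profiling panel in which PAK4 was one of the panel members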
[7] = target: T2, Serine/threonine-protein kinase TAO1 (Homo sapiens, UniProt Q7L7X3)
T2 sequence (Q7L7X3 whole entry): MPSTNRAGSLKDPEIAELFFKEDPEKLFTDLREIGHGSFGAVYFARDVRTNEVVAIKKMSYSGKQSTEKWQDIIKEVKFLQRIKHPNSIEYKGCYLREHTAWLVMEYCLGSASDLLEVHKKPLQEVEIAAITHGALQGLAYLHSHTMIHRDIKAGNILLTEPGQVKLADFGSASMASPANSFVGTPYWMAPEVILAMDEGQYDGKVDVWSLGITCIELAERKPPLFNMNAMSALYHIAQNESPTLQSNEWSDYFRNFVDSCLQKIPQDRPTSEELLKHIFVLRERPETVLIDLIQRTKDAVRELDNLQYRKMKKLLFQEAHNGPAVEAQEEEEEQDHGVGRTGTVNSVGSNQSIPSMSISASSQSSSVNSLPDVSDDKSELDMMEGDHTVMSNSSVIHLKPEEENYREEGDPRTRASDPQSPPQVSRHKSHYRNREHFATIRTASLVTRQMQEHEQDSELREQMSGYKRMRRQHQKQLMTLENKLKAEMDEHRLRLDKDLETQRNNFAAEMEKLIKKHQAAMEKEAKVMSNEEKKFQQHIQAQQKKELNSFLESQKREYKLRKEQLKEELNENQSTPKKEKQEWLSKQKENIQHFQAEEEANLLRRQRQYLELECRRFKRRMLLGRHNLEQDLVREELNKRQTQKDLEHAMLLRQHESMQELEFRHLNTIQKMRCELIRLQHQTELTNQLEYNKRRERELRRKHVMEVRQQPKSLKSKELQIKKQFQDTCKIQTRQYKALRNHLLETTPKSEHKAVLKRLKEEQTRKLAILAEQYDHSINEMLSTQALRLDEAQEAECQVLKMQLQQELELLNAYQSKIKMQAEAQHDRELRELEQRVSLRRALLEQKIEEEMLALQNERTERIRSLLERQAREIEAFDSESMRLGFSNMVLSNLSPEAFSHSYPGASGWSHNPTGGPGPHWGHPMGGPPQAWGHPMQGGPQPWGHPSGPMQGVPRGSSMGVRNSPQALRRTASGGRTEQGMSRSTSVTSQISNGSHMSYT

[8] = target: Glycogen synthase kinase-3 alpha (Homo sapiens, UniProt P49840);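 further: GSK3A result taken from a broad kinome-wide kinase panel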
[9] = target: Activated CDC42 kinase 1 (Homo sapiens, UniProt Q07912); test: Navigating the Kinome. Panel member name: ACK1
[10] = target: G protein-coupled receptor kinase 5 (Homo sapiens, UniProt P34947); test: Navigating the Kinome. Panel member name: GPRK5
[11] = target: Dual specificity tyrosine-phosphorylation-regulated kinase 1B (Homo sapiens, UniProt Q9Y463); test: Navigating the Kinome. Panel member name: DYRK1B
[12] = target: Platelet-derived growth factor receptor alpha (Homo sapiens, UniProt P16234); test: Navigating the Kinome. Panel member name: PDGFRA
[13] = target: Cyclin-dependent kinase 8 (Homo sapiens, UniProt P49336); test: Navigating the Kinome. Panel member name: CDK8
[14] = target: BDNF/NT-3 growth factors receptor (Homo sapiens, UniProt Q16620);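 further: NTRK2 measured as one member of a broad kinome-wide kinase profiling panel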
[15] = target: Dual specificity protein kinase CLK4 (Homo sapiens, UniProt Q9HAZ1)
[16] = target: Macrophage-stimulating protein receptor (Homo sapiens, UniProt Q04912); test: Navigating the Kinome. Panel member name: MST1R
[17] = target: Macrophage colony-stimulating factor 1 receptor (Homo sapiens, UniProt P07333);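 further: value comes from the Navigating the Kinome screening panel, CSF1R member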
[18] = target: Dual specificity mitogen-activated protein kinase kinase 2 (Homo sapiens, UniProt P36507); test: Navigating the Kinome. Panel member name: MAP2K2
[19] = target: Dual specificity tyrosine-phosphorylation-regulated kinase 1A (Homo sapiens, UniProt Q13627);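 further: measured against DYRK1A as one member of a broad kinome profiling panel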
[20] = target: Calcium/calmodulin-dependent protein kinase type II subunit alpha (Homo sapiens, UniProt Q9UQM7); test: Navigating the Kinome. Panel member name: CAMK2A

ALK tyrosine kinase receptor, sequence (Q9UM73 whole entry): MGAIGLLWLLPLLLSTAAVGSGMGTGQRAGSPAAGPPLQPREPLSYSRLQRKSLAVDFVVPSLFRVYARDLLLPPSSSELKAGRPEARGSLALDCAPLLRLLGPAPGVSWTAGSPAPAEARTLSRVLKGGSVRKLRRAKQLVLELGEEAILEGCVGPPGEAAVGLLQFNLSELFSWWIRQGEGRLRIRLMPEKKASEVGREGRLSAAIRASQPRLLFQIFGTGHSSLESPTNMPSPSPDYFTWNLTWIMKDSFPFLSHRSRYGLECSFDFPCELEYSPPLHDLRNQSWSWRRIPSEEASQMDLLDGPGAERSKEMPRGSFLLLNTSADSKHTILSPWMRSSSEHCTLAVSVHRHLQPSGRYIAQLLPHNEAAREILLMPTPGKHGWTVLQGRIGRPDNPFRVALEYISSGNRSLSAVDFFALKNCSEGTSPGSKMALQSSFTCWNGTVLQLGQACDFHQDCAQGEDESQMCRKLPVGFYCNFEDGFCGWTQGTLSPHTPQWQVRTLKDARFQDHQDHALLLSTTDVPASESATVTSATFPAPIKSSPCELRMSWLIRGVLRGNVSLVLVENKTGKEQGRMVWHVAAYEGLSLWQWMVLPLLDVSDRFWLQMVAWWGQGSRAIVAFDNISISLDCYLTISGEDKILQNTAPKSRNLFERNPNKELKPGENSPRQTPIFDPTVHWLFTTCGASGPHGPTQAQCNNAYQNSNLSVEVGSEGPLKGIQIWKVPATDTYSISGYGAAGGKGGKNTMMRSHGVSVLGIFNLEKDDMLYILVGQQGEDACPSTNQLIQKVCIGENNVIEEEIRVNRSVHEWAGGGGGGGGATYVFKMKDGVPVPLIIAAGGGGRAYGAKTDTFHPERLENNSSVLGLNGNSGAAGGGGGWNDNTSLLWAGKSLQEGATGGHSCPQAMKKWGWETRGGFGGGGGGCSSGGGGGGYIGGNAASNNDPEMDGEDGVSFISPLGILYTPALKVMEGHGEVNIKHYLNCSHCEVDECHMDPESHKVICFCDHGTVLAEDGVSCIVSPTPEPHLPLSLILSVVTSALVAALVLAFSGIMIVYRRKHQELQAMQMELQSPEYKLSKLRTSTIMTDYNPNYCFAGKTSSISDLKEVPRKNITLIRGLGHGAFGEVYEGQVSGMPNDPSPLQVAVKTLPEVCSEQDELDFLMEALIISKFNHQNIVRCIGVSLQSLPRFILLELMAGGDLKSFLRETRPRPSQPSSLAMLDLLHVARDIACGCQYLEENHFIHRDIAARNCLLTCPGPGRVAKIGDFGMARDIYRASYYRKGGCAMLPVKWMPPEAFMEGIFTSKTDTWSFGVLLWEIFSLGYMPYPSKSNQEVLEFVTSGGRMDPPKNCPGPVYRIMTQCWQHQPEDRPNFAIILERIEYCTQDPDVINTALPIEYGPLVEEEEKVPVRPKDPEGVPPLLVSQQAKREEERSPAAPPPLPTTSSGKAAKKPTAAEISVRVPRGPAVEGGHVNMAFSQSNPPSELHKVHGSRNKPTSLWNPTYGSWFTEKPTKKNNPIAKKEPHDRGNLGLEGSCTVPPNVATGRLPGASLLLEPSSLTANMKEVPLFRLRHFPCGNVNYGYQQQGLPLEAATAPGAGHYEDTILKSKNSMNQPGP
Platelet-derived growth factor receptor alpha, sequence (P16234 whole entry): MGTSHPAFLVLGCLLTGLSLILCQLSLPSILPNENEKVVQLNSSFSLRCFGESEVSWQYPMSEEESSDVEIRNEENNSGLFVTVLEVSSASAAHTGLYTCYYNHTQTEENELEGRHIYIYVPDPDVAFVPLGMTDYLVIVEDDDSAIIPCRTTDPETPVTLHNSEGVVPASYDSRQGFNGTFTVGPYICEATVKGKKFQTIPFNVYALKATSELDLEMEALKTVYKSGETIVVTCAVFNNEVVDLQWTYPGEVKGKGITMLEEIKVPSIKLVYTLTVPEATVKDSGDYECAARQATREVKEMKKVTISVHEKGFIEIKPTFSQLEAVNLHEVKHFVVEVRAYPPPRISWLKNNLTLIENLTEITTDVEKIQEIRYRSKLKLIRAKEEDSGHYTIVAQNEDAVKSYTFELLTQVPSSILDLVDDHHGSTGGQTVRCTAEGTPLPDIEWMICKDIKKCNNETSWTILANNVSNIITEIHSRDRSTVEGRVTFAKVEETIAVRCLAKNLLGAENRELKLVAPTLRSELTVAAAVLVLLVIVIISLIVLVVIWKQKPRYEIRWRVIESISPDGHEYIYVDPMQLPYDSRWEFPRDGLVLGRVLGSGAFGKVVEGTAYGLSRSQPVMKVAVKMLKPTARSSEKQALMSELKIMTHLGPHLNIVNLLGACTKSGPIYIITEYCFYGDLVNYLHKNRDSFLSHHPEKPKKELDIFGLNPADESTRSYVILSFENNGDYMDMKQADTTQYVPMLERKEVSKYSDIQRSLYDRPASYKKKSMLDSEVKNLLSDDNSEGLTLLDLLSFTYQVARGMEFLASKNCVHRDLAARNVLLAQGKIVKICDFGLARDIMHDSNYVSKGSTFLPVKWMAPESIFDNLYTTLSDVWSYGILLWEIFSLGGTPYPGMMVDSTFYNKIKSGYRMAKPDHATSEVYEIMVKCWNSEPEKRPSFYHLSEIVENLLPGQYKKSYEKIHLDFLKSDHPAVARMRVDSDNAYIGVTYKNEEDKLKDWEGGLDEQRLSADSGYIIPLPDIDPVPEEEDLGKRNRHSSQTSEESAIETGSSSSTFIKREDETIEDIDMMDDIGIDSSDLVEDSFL
Glycogen synthase kinase-3 alpha, sequence (P49840 whole entry): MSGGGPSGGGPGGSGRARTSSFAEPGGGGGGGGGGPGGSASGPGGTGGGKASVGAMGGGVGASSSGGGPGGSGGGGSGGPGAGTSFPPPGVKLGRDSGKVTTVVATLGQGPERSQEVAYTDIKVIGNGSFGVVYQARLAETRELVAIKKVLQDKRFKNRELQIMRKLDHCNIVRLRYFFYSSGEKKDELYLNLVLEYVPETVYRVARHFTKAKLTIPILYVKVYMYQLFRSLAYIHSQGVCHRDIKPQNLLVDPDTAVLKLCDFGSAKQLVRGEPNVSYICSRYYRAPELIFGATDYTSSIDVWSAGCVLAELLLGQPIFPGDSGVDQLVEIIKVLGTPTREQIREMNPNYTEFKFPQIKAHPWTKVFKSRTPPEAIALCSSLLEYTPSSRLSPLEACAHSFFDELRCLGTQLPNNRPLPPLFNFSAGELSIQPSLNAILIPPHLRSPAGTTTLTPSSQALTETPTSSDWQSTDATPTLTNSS
Dual specificity mitogen-activated protein kinase kinase 2, sequence (P36507 whole entry): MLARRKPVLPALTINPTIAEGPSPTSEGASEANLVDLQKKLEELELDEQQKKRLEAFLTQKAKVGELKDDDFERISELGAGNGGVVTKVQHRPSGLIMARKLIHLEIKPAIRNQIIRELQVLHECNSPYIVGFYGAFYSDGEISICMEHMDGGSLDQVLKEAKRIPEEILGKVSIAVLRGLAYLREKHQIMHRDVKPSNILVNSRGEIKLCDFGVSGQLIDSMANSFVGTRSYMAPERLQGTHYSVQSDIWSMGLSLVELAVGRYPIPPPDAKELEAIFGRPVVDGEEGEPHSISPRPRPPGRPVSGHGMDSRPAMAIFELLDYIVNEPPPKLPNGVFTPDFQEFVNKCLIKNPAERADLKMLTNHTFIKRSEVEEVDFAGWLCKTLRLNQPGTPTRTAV
Activated CDC42 kinase 1, sequence (Q07912 whole entry): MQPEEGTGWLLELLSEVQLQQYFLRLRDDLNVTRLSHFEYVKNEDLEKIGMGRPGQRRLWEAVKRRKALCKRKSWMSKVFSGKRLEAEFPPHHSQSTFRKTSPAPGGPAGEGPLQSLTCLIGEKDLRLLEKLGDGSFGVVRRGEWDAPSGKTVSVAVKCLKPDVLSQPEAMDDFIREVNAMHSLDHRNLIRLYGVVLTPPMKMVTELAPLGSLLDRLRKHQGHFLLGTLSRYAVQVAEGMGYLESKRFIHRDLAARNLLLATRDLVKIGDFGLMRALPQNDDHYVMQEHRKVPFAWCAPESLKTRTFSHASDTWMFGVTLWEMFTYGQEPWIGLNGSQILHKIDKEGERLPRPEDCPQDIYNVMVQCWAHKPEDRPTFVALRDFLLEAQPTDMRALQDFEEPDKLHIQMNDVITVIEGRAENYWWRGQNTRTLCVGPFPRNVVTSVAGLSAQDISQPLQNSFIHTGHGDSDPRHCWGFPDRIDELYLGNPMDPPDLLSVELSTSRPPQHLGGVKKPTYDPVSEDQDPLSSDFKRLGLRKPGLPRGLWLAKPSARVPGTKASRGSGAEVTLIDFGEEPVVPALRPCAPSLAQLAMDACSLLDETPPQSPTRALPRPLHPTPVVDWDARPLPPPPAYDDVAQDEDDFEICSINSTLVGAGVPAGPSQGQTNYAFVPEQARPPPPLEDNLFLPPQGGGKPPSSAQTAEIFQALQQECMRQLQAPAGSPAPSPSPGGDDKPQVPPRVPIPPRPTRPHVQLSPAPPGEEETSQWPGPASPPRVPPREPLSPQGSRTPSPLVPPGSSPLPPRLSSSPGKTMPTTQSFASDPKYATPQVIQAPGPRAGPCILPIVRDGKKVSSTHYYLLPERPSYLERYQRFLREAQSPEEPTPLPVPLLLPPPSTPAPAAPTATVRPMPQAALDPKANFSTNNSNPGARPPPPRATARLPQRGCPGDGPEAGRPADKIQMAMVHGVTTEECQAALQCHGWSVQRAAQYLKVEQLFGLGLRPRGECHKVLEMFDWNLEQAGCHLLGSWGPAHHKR
Serine/threonine-protein kinase pim-1, sequence (P11309 whole entry): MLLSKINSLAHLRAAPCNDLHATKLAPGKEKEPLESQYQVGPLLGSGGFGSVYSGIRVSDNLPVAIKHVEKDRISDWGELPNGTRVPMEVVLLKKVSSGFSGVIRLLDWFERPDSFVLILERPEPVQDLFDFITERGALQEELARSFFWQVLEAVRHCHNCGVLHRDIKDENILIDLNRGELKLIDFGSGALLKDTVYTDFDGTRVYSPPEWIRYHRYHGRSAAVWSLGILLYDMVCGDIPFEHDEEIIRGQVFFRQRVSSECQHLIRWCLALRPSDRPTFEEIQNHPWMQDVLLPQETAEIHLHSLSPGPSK

| Ki [1] | Ki [2] | Ki [3] | Ki [4] | Ki [5] | Ki [6] | Ki [7] | Ki [8] | Ki [9] | Ki [10] | Ki [11] | Ki [12] | Ki [13] | Ki [14] | Ki [15] | Ki [16] | Ki [17] | Ki [18] | Ki [19] | Ki [20] | SMILES |
| --- | --- | --- | --- | --- | --- | --- | --- | --- | --- | --- | --- | --- | --- | --- | --- | --- | --- | --- | --- | --- |
| > 2.51 µM (inactive) | > 6.31 µM (inactive) | > 3.16 µM (inactive) | > 3.98 µM (inactive) | > 6.31 µM (inactive) | > 5.01 µM (inactive) | > 6.31 µM (inactive) | > 3.98 µM (inactive) | > 3.98 µM (inactive) | > 3.98 µM (inactive) | > 2.51 µM (inactive) | > 2.51 µM (inactive) | > 3.98 µM (inactive) | > 3.98 µM (inactive) | > 2.51 µM (inactive) | > 3.98 µM (inactive) | > 2.51 µM (inactive) | > 3.98 µM (inactive) | > 2 µM (inactive) | > 3.98 µM (inactive) | COc1cccc(C(C)NC(=O)c2sc(-c3ccncc3)nc2C)c1 (stereo not given) |
| > 2.51 µM (inactive) | > 6.31 µM (inactive) | > 3.16 µM (inactive) | > 3.98 µM (inactive) | > 6.31 µM (inactive) | > 5.01 µM (inactive) | > 6.31 µM (inactive) | > 3.98 µM (inactive) | > 3.98 µM (inactive) | > 3.98 µM (inactive) | 0.0398 µM (active) | > 2.51 µM (inactive) | 0.0158 µM (active) | > 3.98 µM (inactive) | 0.0126 µM (active) | > 3.98 µM (inactive) | > 2.51 µM (inactive) | > 3.98 µM (inactive) | 0.0398 µM (active) | > 7.94 µM (inactive) | CCCCC(=O)Nc1cc(-c2c[nH]c3ncccc23)cc(Cl)n1 |
| > 2.51 µM (inactive) | > 6.31 µM (inactive) | > 3.16 µM (inactive) | 2.51 µM (active) | > 6.31 µM (inactive) | > 5.01 µM (inactive) | > 6.31 µM (inactive) | > 3.98 µM (inactive) | > 3.98 µM (inactive) | > 3.98 µM (inactive) | > 2.51 µM (inactive) | > 3.16 µM (inactive) | > 3.98 µM (inactive) | 0.794 µM (active) | 2.51 µM (active) | > 3.98 µM (inactive) | > 2 µM (inactive) | > 3.98 µM (inactive) | > 2 µM (inactive) | > 3.98 µM (inactive) | Oc1ccc(-c2nc(-c3ccncc3)c(-c3ccc(F)cc3)[nH]2)cc1 [SB-202190] |
